Measurements published in patent publication US11160870B2, “Extended release microparticles and suspensions thereof for medical therapy” (Graybug Vision, Inc., priority 2017, dated 2021).

Tested on: eye
Assay: Acute non-GLP IVT ocular tolerability and toxicity study of sunitinib malate (free drug)
Format: in vivo, pigmented rabbits
Conditions: single bilateral IVT injection, up to 7 days
Procedure: An acute, non-GLP IVT study was conducted to evaluate the ocular tolerability and toxicity of sunitinib malate (free drug) for up to 7 days following a single IVT injection. Sunitinib malate was formulated in phosphate buffered saline and injected bilaterally (0.1 mL) at 0.125 or 1.25 mg per eye.

Structure (SMILES): CCN(CC)CCNC(=O)c1c(C)[nH]c(/C=C2\C(=O)Nc3ccc(F)cc32)c1C [sunitinib malate]
- no-observed-adverse-effect-level (NOAEL) dose: 0.125 mg/eye
